From publication PMC5920526 (ACS catalysis, 2017) come the findings set out here.

The test system of experiment [1] is SpNanC. In words: Substrate specificity of SpNanC with pNP-tagged α2–3-linked sialosides. The experiment is classed as biochemical, Streptococcus pneumoniae. The note with it: for Percentage conversion: sialoside as substrate of SpNanC; for yield of cleavage by SpNanC: reactions using 3 μg of SpNanC.
In another experiment the target is VcSialidase (Vibrio cholerae serotype O1, UniProt P0C6E9). In words: biochemical.
For experiment [2], the system named is SpNanC. The experiment can be described thus: Sialidase inhibition, Neu5Acα2–3GalβpNP as substrate. The experiment is classed as biochemical, Streptococcus pneumoniae. The note with it: 0.1 mM inhibitor.
Another experiment deals with SpNanB (Streptococcus pneumoniae serotype 4, UniProt Q54727). Described as above. The note with it: 0.1 mM inhibitor. The experiment is classed as biochemical.
Experiment [3] addresses human cytosolic sialidase hNEU2 (Homo sapiens, UniProt Q9Y3R4). The description is as above. The experiment is classed as biochemical. The note with it: 0.1 mM inhibitor.
The target in another experiment is PmST1 (Pasteurella multocida, UniProt Q15KI8). The experiment is classed as biochemical. To be noted: 0.1 mM inhibitor.
The next experiment deals with CpNanH (Clostridium perfringens, UniProt P10481). The experiment is classed as biochemical.

Compound `O=C(O)[C@@]1(O[C@H]2[C@@H](O)[C@@H](CO)O[C@@H](Oc3ccc([N+](=O)[O-])cc3)[C@@H]2O)C[C@H](O)[C@@H](F)[C@H]([C@H](O)[C@H](O)CO)O1` [Kdn5Fα2–3GalβpNP] had a Percentage conversion with SpNanC [1] of 0.48 ± 0.00%.

For `[N-]=[N+]=NC1C(O)CC(OC2C(O)C(CO)OC(Oc3ccc([N+](=O)[O-])cc3)C2O)(C(=O)O)OC1C(O)C(O)CO` (stereo not drawn) [Kdn5N3α2–3GalβpNP], in the experiment with SpNanC [1], the Percentage conversion is recorded as 0.32 ± 0.45%.

`CO[C@H]1[C@H]([C@H](O)[C@H](O)CO)O[C@](O[C@H]2[C@@H](O)[C@@H](CO)O[C@@H](Oc3ccc([N+](=O)[O-])cc3)[C@@H]2O)(C(=O)O)C[C@@H]1O` [Kdn5OMeα2–3GalβpNP] yielded a Percentage conversion with SpNanC [1] of 1.53 ± 1.02%.

In turn, `O=C(O)C1(OC2C(O)C(CO)OC(Oc3ccc([N+](=O)[O-])cc3)C2O)CC(O)CC(C(O)C(O)CO)O1` (stereo not shown) [Kdn5deoxyα2–3GalβpNP] displayed a Percentage conversion with SpNanC [1] of 5.31 ± 0.23%.

In the experiment with SpNanC [1], `O=C(O)[C@]1(O[C@H]2[C@@H](O)[C@@H](CO)O[C@@H](Oc3ccc([N+](=O)[O-])cc3)[C@@H]2O)C[C@H](O)[C@@H](O)[C@H]([C@H](F)[C@H](O)CO)O1` [Kdn7Fα2–3GalβpNP] returned a Percentage conversion of 0.56 ± 0.11%.

In the experiment with SpNanC [1], `[N-]=[N+]=NC(C(O)CO)C1OC(OC2C(O)C(CO)OC(Oc3ccc([N+](=O)[O-])cc3)C2O)(C(=O)O)CC(O)C1O` (stereo not drawn) [Kdn7N3α2–3GalβpNP] returned a Percentage conversion of 4.50 ± 0.45%.

In the case of `CO[C@@H]([C@@H]1O[C@](O[C@H]2[C@@H](O)[C@@H](CO)O[C@@H](Oc3ccc([N+](=O)[O-])cc3)[C@@H]2O)(C(=O)O)C[C@H](O)[C@H]1O)[C@H](O)CO` [Kdn7OMeα2–3GalβpNP], in the experiment on SpNanC [1], the “yield of cleavage by SpNanC” value amounted to 23% and the Percentage conversion was determined as 23.4 ± 3.3%.

Consider `O=C(O)C1(OC2C(O)C(CO)OC(Oc3ccc([N+](=O)[O-])cc3)C2O)CC(O)C(O)C(CC(O)CO)O1` (stereo not shown) [Kdn7deoxyα2–3GalβpNP], for which, in the experiment on SpNanC [1], the “yield of cleavage by SpNanC” value amounted to 10% and the Percentage conversion turned out to be 10.1 ± 0.0%.

In the experiment on SpNanC [1], `O=C(O)C1(OC2C(O)C(CO)OC(Oc3ccc([N+](=O)[O-])cc3)C2O)CC(O)C(O)C(C(O)C(O)CF)O1` (stereo not shown) [Kdn9Fα2–3GalβpNP] had a Percentage conversion of 3.70 ± 1.14%.

Consider `COCC(O)C(O)C1OC(OC2C(O)C(CO)OC(Oc3ccc([N+](=O)[O-])cc3)C2O)(C(=O)O)CC(O)C1O` (stereo not shown) [Kdn9OMeα2–3GalβpNP], for which the Percentage conversion with SpNanC [1] came out at 4.02 ± 1.36%.

As for `O=C(O)[C@]1(O[C@H]2[C@@H](O)[C@@H](CO)O[C@@H](Oc3ccc([N+](=O)[O-])cc3)[C@@H]2O)C[C@H](O)[C@@H](O)[C@H]([C@H](O)[C@H](O)CO)O1` [Kdnα2–3GalβpNP], the Percentage conversion in the experiment on SpNanC [1] came out at 4.50 ± 0.45%.

In the experiment on SpNanC [1], `CC(=O)NC1C(O)CC(OC2C(O)C(CO)OC(Oc3ccc([N+](=O)[O-])cc3)C2O)(C(=O)O)OC1C(F)C(O)CO` (stereo not shown) [Neu5Ac7Fα2–3GalβpNP] had a Percentage conversion of 91.0 ± 4.3%.

Take `CC(=O)NC1C(O)CC(OC2C(O)C(CO)OC(Oc3ccc([N+](=O)[O-])cc3)C2O)(C(=O)O)OC1C(N=[N+]=[N-])C(O)CO` (stereo not drawn) [Neu5Ac7N3α2–3GalβpNP]: the Percentage conversion with SpNanC [1] was determined as 65.9 ± 1.1%.

As to `COC(C(O)CO)C1OC(OC2C(O)C(CO)OC(Oc3ccc([N+](=O)[O-])cc3)C2O)(C(=O)O)CC(O)C1NC(C)=O` (stereo not shown) [Neu5Ac7OMeα2–3GalβpNP], the Percentage conversion in the experiment on SpNanC [1] is reported as 96.5 ± 1.7%.

As to `CC(=O)N[C@H]1[C@H](C[C@H](O)CO)O[C@@](O[C@H]2[C@@H](O)[C@@H](CO)O[C@@H](Oc3ccc([N+](=O)[O-])cc3)[C@@H]2O)(C(=O)O)C[C@@H]1O` [Neu5Ac7deoxyα2–3GalβpNP], the Percentage conversion with SpNanC [1] is 91.2 ± 1.8%.

Turning to `CC(=O)N[C@H]1[C@H]([C@H](O)[C@H](O)CF)O[C@@](O[C@H]2[C@@H](O)[C@@H](CO)O[C@@H](Oc3ccc([N+](=O)[O-])cc3)[C@@H]2O)(C(=O)O)C[C@@H]1O` [Neu5Ac9Fα2–3GalβpNP], in the experiment with SpNanC [1], the Percentage conversion amounted to 75.6 ± 3.9%.

For the compound `COCC(O)C(O)C1OC(OC2C(O)C(CO)OC(Oc3ccc([N+](=O)[O-])cc3)C2O)(C(=O)O)CC(O)C1NC(C)=O` (stereo not shown) [Neu5Ac9OMeα2–3GalβpNP], the Percentage conversion with SpNanC [1] is listed as 88.5 ± 5.1%.

In the experiment with SpNanC [1], `CC(=O)NC1C(O)CC(OC2C(O)C(CO)OC(Oc3ccc([N+](=O)[O-])cc3)C2O)(C(=O)O)OC1C(O)C(C)O` (stereo not shown) [Neu5Ac9deoxyα2–3GalβpNP] returned a Percentage conversion of 93.5 ± 3.1%.

On to `O=C(CF)NC1C(O)CC(OC2C(O)C(CO)OC(Oc3ccc([N+](=O)[O-])cc3)C2O)(C(=O)O)OC1C(O)C(O)CO` (stereo not shown) [Neu5AcFα2–3GalβpNP], for which the Percentage conversion with SpNanC [1] turned out to be 74.8 ± 3.2%.

In turn, `[N-]=[N+]=NCC(=O)N[C@H]1[C@H]([C@H](O)[C@H](O)CO)O[C@@](O[C@H]2[C@@H](O)[C@@H](CO)O[C@@H](Oc3ccc([N+](=O)[O-])cc3)[C@@H]2O)(C(=O)O)C[C@@H]1O` [Neu5AcN3α2–3GalβpNP] had a Percentage conversion in the experiment with SpNanC [1] of 87.9 ± 1.6%.

With `COCC(=O)NC1C(O)CC(OC2C(O)C(CO)OC(Oc3ccc([N+](=O)[O-])cc3)C2O)(C(=O)O)OC1C(O)C(O)CO` (stereo not shown) [Neu5AcOMeα2–3GalβpNP], the Percentage conversion in the experiment with SpNanC [1] is 81.8 ± 1.7%.

Regarding `O=C(CO)NC1C(O)CC(OC2C(O)C(CO)OC(Oc3ccc([N+](=O)[O-])cc3)C2O)(C(=O)O)OC1C(O)C(O)CF` (stereo not shown) [Neu5Gc9Fα2–3GalβpNP], the Percentage conversion with SpNanC [1] is 72.3 ± 2.6%.

In the case of `[N-]=[N+]=NCC(O)C(O)C1OC(OC2C(O)C(CO)OC(Oc3ccc([N+](=O)[O-])cc3)C2O)(C(=O)O)CC(O)C1NC(=O)CO` (stereo not drawn) [Neu5Gc9N3α2–3GalβpNP], in the experiment with SpNanC [1], the Percentage conversion came to 89.5 ± 3.5%.

As to `COCC(O)C(O)C1OC(OC2C(O)C(CO)OC(Oc3ccc([N+](=O)[O-])cc3)C2O)(C(=O)O)CC(O)C1NC(=O)CO` (stereo not shown) [Neu5Gc9OMeα2–3GalβpNP], in the experiment on SpNanC [1], the Percentage conversion was 75.0 ± 1.9%.

In the case of `C[C@@H](O)[C@@H](O)[C@@H]1O[C@@](O[C@H]2[C@@H](O)[C@@H](CO)O[C@@H](Oc3ccc([N+](=O)[O-])cc3)[C@@H]2O)(C(=O)O)C[C@H](O)[C@H]1NC(=O)CO` [Neu5Gc9deoxyα2–3GalβpNP], in the experiment with SpNanC [1], the Percentage conversion is listed as 85.5 ± 1.4%.

Regarding `O=C(CO)NC1C(O)CC(OC2C(O)C(CO)OC(Oc3ccc([N+](=O)[O-])cc3)C2O)(C(=O)O)OC1C(O)C(O)CO` (stereo not shown) [Neu5Gcα2–3GalβpNP], the Percentage conversion in the experiment on SpNanC [1] is listed as 80.6 ± 6.7%.

`O=C(CO)N[C@H]1[C@H]([C@H](O)[C@H](O)CO)OC(C(=O)O)=C[C@@H]1O` [compound 7, 2,3-dehydro-2-deoxy-N-glycolylneuraminic acid]: the “inhibition against VcSialidase” value against VcSialidase was “more than 50%”. For the same compound, in the experiment on SpNanC [2], the “inhibitory activity against SpNanC (in words)” value was “not effective inhibitors”. Also, on SpNanB, the “inhibitory activity against SpNanB (in words)” value is recorded as “not effective inhibitors”. Also, in experiment [3], the “inhibition against hNEU2” value is “more than 50%”. Besides, the “inhibitory activity against PmST1 (in words)” value against PmST1 is reported as “not effective inhibitors”. Also, the “inhibitory activity against CpNanH (in words)” value on CpNanH is given as “not effective inhibitors”.
